Values quoted from earlier work as cited in patent US20080131532A1, “Fast asleep” (priority 2006, published 2008).

Experiments:
women = details: 100 mg pill at 08.00 h
jet lag = details: two doses, different administration times
[1] = system: travelers crossing five or more time zones
[2] = system: primary or secondary sleep disorders; details: meta-analysis
healthy male volunteers = details: 10-mg dose for 28 days, 1 hour before sleep time
women with asthma = details: 3 mg for 4 weeks, between groups
[3] = system: children with neurologic disorders; details: 5 milligrams at bedtime, six children
patients with tinnitus = details: 3 mg per day for 4 weeks; weeks 0 to 4 and weeks 0 to 8
[4] = system: long-term users of benzodiazepine; details: 2 milligrams daily controlled release
healthy elderly subjects = details: 1 mg nightly for 4 weeks
[5] = system: schizophrenic outpatients with initial insomnia; details: 3-12 mg/night, 15 days
[6] = system: children with idiopathic chronic sleep-onset insomnia; details: 5 mg at 7 pm, 4-week treatment
[7] = system: subjects with Alzheimer's disease; details: eight weeks, 50 subjects
[8] = in vivo
[9] = system: patients with multi-infarct dementia or senile dementia and senile and pre-senile simple memory disorders
rat brain = details: following administration
[10] = sleep-disturbed rats, 09:00 to 15:00

Structure (SMILES): COc1ccc2[nH]cc(CCNC(C)=O)c2c1 [Melatonin, N-[2-(5-Methoxy-1H-indol-3-yl)ethyl]acetamide]
- daytime cortisol levels in postmenopausal women (PMW) (women): marked increase
- serum cortisol levels in young women (EFW) (women): did not modify
- effect on jet lag versus placebo (jet lag): no beneficial physiological effect
- effect on jet lag [1]: reduce or prevent jet lag
- efficacy in primary or secondary sleep disorders [2]: not effective
- sleep latency, criterion 10 minutes of uninterrupted sleep (healthy male volunteers): significant reduction
- asthma symptoms, use of relief medication and daily peak expiratory flow rate (women with asthma): No significant difference
- Quality and quantity of sleep [3]: quickly increased in five of the six children
- mean PSQI (patients with tinnitus): significantly decreased
- mean THI score (patients with tinnitus): decreased significantly
- Sleep quality scores versus placebo [4]: significantly higher
- subjects who completely discontinued benzodiazepine use ([4]; period one, placebo four of 16): 14 of 18
- California Verbal Learning Test-interference subtest scores (healthy elderly subjects): improved
- reported morning restedness (healthy elderly subjects): improved
- sleep latency after nocturnal awakening (healthy elderly subjects): improved
- daytime functioning [5]: improved
- duration of sleep [5]: increased
- freshness on awakening [5]: heightened
- mood [5]: improved
- number of nighttime awakenings [5]: reduced
- sleep-onset latency (subjective) [5]: significantly reduced
- Lights-off time [6]: did not change
- advance of sleep offset [6]: 9 min
- advance of sleep onset [6]: 57 min
- decrease of sleep latency [6]: 17 min
- total scores of the RAND-GHRI and FS-II compared to placebo [6]: improved significantly more
- total sleep time [6]: did not change
- advance of melatonin onset ([6]; dim light melatonin onset in saliva): 82 min
- standardized response mean for the RAND-GHRI ([6]; placebo 0.07): 0.69
- standardized response mean for the FS-II ([6]; placebo 0.64): 1.61

Structure (SMILES): CCOC(=O)c1ncn2c1CN(C)C(=O)c1cc(F)ccc1-2 [Flumazenil, flumazenil]
- effect on changes in delta activity induced by kava-kava extract and flunitrazepam (sleep-disturbed rats; sleep-disturbed rats): no significant effect

Structure (SMILES): C/C=C1\[C@H]2C=C(C)C[C@]1(N)c1ccc(=O)[nH]c1C2 [Huperzine A]
- patients with significant improvement in memory, cognitive and behavioral functions [7]: 58%
- time to reach peak blood level [8]: approximately 80 minutes
- Dizziness ([9]; in vivo): experienced by a few
- Wechsler Memory Scale ([9]; injectable form versus saline control): significant positive effects
- duration of AChE inhibitory action (compared with tacrine, donepezil, and rivastigmine): longer duration
- penetration through the blood-brain barrier (in vivo): better penetration
- toxicity in animal and clinical safety tests (in vivo): no unexpected toxicity
- oral bioavailability (in vivo, po): higher
- memory deficits (phase IV clinical trials in China, elderly with benign senescent forgetfulness, Alzheimer disease, vascular dementia): significantly improved
- acetylcholine levels in the rat brain (rat brain): increase
- dopamine levels (rat brain): increases
- norepinephrine levels (rat brain): increases

Structure (SMILES): CN1C(=O)CN=C(c2ccccc2F)c2cc([N+](=O)[O-])ccc21 [flunitrazepam]
- antagonism of the effects by flumazenil (sleep-disturbed rats; benzodiazepine receptor antagonist flumazenil): antagonized
- delta activity during non-REM sleep (sleep-disturbed rats; sleep-disturbed rats): significant decrease
- total non-REM sleep time (sleep-disturbed rats; [10]): increase
- total waking time (sleep-disturbed rats; [10]): decrease
- sleep latency (sleep-disturbed rats; sleep-disturbed rats, kava-kava extract 300 mg/kg): significant shortening

Structure (SMILES): CC1=C[C@H]2Cc3[nH]c(=O)ccc3[C@]3(C1)NCCC[C@H]23 [Huperzine B]
- acetylcholinesterase inhibition (in words) (acetylcholinesterase): much less potent
